Results: the Kinase Knowledgebase extract (Sharma et al. 2016)

Biological target: ROCK2 (human) (UniProt O75116)
Test: Inhibition of ROCK2 Kinase Activity

Sequence of ROCK2 (human) (O75116 whole entry, looked up): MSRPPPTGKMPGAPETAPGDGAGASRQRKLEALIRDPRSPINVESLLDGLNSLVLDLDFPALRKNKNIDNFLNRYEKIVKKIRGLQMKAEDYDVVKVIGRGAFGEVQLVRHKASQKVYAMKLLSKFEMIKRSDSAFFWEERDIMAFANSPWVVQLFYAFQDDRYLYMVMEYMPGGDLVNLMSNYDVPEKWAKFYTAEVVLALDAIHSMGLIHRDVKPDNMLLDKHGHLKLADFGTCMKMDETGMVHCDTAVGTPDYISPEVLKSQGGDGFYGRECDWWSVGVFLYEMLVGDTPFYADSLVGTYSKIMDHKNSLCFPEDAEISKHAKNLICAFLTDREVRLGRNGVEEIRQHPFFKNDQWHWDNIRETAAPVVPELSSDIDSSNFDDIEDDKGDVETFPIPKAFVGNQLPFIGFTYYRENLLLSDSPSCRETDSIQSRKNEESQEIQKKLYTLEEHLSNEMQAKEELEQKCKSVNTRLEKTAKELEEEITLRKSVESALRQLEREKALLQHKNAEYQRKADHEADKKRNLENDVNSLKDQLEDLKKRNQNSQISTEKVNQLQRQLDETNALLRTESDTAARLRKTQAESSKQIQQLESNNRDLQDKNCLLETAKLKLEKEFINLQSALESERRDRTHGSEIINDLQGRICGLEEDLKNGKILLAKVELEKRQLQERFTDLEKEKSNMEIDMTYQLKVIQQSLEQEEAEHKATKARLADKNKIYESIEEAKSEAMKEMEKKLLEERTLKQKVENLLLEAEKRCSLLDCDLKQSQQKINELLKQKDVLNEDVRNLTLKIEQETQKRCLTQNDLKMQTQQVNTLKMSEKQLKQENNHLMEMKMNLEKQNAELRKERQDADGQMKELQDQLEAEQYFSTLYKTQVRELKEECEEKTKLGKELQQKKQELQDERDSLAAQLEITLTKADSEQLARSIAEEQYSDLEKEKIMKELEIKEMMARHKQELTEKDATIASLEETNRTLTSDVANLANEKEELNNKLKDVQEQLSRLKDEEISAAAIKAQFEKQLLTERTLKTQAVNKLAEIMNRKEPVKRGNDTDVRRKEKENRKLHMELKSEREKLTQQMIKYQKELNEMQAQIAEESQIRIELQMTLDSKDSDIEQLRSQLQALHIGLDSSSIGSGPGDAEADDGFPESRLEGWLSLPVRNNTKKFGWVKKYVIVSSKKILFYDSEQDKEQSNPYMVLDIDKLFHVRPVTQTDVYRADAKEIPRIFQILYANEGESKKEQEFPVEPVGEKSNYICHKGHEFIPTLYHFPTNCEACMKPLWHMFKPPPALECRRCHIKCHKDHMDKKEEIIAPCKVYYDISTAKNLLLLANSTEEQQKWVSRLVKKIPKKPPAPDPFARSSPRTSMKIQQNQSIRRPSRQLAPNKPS

SMILES	IC50 [µM]
CN(CC(N)c1ccc(C(=O)Nc2ccncc2)cc1)C(=O)Cc1ccc2c(c1)OCO2 (stereo unspecified)	0.5 to 5
N[C@H](CC(=O)N[C@H]1CCCc2ccccc21)c1ccc(C(=O)Nc2ccncc2)cc1	0.05 to 0.5
CN(C)CCCC(=O)NCC(N)c1ccc(C(=O)Nc2ccncc2)cc1 (stereo unspecified)	0.5 to 5
COc1ccc2c(c1)CCCC2C(=O)NCC(N)c1ccc(C(=O)Nc2ccncc2)cc1 (stereo unspecified)	0.05 to 0.5
NC(c1ccc(C(=O)Nc2ccncc2)cc1)C1CCCN1C(=O)Cc1c[nH]c2ccccc12 (stereo unspecified)	0.5 to 5
Cc1ccc(C(=O)NCC(N)c2ccc(C(=O)Nc3ccncc3)cc2)cc1 (stereo unspecified)	0.5 to 5
COc1cccc(C(=O)NCC(N)c2ccc(C(=O)Nc3ccncc3)cc2)c1 (stereo unspecified)	0.5 to 5
NC(CC(=O)N[C@H]1CCc2ccccc21)c1ccc(C(=O)Nc2ccncc2)cc1 (stereo partly specified)	0.05 to 0.5
CC(C)(C(=O)NCC(N)c1ccc(C(=O)Nc2ccncc2)cc1)c1ccc(F)cc1Cl (stereo unspecified)	0.05 to 0.5
CCCCCCCCC(=O)NCC(N)c1ccc(C(=O)Nc2ccncc2)cc1 (stereo unspecified)	0.05 to 0.5
NC(CNC(=O)C1(c2cccs2)CC1)c1ccc(C(=O)Nc2ccncc2)cc1 (stereo unspecified)	0.05 to 0.5
CC(C)(C)c1ccc(NC(=O)NCC(N)c2ccc(C(=O)Nc3ccncc3)cc2)cc1 (stereo unspecified)	0.5 to 5
CN(CC(N)c1ccc(C(=O)Nc2ccncc2)cc1)C(=O)C(C)(C)c1ccc(F)c(F)c1 (stereo unspecified)	0.5 to 5
NC(CC(=O)NCc1ccc(-c2cccs2)cc1)c1ccc(C(=O)Nc2ccncc2)cc1 (stereo unspecified)	0.05 to 0.5
Cc1cccc(CC(=O)N(C)CC(N)c2ccc(C(=O)Nc3ccncc3)cc2)c1 (stereo unspecified)	0.5 to 5
NC(CNC(=O)c1cc2cc(F)ccc2[nH]1)c1ccc(C(=O)Nc2ccncc2)cc1 (stereo unspecified)	0.5 to 5
NC(c1ccc(C(=O)Nc2ccncc2)cc1)C1CCCN1C(=O)C1Cc2ccccc21 (stereo unspecified)	0.05 to 0.5
NC(c1ccc(C(=O)Nc2ccncc2)cc1)C1CCCN1C(=O)C(c1ccccc1)C1CCCC1 (stereo unspecified)	0.5 to 5
CC(=NOC(C)(C)C)c1ccc(C(=O)NCC(N)c2ccc(C(=O)Nc3ccncc3)cc2)s1 (stereo unspecified)	0.5 to 5
NC(CNC(=O)Nc1cccc2ccccc12)c1ccc(C(=O)Nc2ccncc2)cc1 (stereo unspecified)	0.05 to 0.5
COc1ccc(CNC(=O)NCC(N)c2ccc(C(=O)Nc3ccncc3)cc2)cc1 (stereo unspecified)	0.05 to 0.5
NC(c1ccc(C(=O)Nc2ccncc2)cc1)C1CCCN1C(=O)Cc1cccc(F)c1F (stereo unspecified)	0.5 to 5
CCN(Cc1ccc([N+](=O)[O-])cc1)C(=O)CC(N)c1ccc(C(=O)Nc2ccncc2)cc1 (stereo unspecified)	0.05 to 0.5

SMILES	IC50 [µM]
COc1ccc(CNC(=O)CC(N)c2ccc(C(=O)Nc3ccncc3)cc2)cc1 (stereo unspecified)	0.05 to 0.5
CN(CC(N)c1ccc(C(=O)Nc2ccncc2)cc1)C(=O)C1(c2ccc(F)cc2)CCC1 (stereo unspecified)	0.5 to 5
CN(CC(N)c1ccc(C(=O)Nc2ccncc2)cc1)C(=O)Cc1ccc(Cl)c(Cl)c1 (stereo unspecified)	0.5 to 5
Cc1ccccc1CNC(=O)NCC(N)c1ccc(C(=O)Nc2ccncc2)cc1 (stereo unspecified)	0.05 to 0.5
CCCOc1ccc(C(=O)NCC(N)c2ccc(C(=O)Nc3ccncc3)cc2)cc1 (stereo unspecified)	0.5 to 5
Cc1ncccc1C(=O)NCC(N)c1ccc(C(=O)Nc2ccncc2)cc1 (stereo unspecified)	0.5 to 5
NC(c1ccc(C(=O)Nc2ccncc2)cc1)C1CCCN1C(=O)C1(c2cccs2)CC1 (stereo unspecified)	0.5 to 5
CC(Cc1ccc(Cl)cc1)NC(=O)CC(N)c1ccc(C(=O)Nc2ccncc2)cc1 (stereo unspecified)	0.05 to 0.5
NC(CNC(=O)NC1CCCC1)c1ccc(C(=O)Nc2ccncc2)cc1 (stereo unspecified)	0.5 to 5
CN(CC(N)c1ccc(C(=O)Nc2ccncc2)cc1)C(=O)Cc1ccc(O)c([N+](=O)[O-])c1 (stereo unspecified)	0.05 to 0.5
NC(CC(=O)NCc1ccccn1)c1ccc(C(=O)Nc2ccncc2)cc1 (stereo unspecified)	0.05 to 0.5
CC(C)(NC(=O)CC(N)c1ccc(C(=O)Nc2ccncc2)cc1)c1ccc(Cl)cc1 (stereo unspecified)	0.05 to 0.5
NC(CNC(=O)c1cc2cc(Cl)ccc2o1)c1ccc(C(=O)Nc2ccncc2)cc1 (stereo unspecified)	0.5 to 5
NC(c1ccc(C(=O)Nc2ccncc2)cc1)C1CCCN1C(=O)C1CCOc2ccccc21 (stereo unspecified)	0.5 to 5
Cc1cccc(Cl)c1CNC(=O)CC(N)c1ccc(C(=O)Nc2ccncc2)cc1 (stereo unspecified)	0.05 to 0.5
NC(c1ccc(C(=O)Nc2ccncc2)cc1)C1CCCN1C(=O)C1(c2ccc(F)cc2)CCC1 (stereo unspecified)	0.5 to 5
NC(CC(=O)NCc1ccccc1)c1ccc(C(=O)Nc2ccncc2)cc1 (stereo unspecified)	0.05 to 0.5
NC(CC(=O)NCCc1cccc(F)c1)c1ccc(C(=O)Nc2ccncc2)cc1 (stereo unspecified)	0.5 to 5
COc1ccc(OC)c(CCNC(=O)CC(N)c2ccc(C(=O)Nc3ccncc3)cc2)c1 (stereo unspecified)	0.05 to 0.5
CN(CCO)C(=O)CC(N)c1ccc(C(=O)Nc2ccncc2)cc1 (stereo unspecified)	0.05 to 0.5
CN(CC(N)c1ccc(C(=O)Nc2ccncc2)cc1)C(=O)Cc1cccc(Cl)c1F (stereo unspecified)	0.5 to 5
CC(C)(NC(=O)CC(N)c1ccc(C(=O)Nc2ccncc2)cc1)c1ccccc1 (stereo unspecified)	0.05 to 0.5
NC(CNC(=O)C1CCOc2ccccc21)c1ccc(C(=O)Nc2ccncc2)cc1 (stereo unspecified)	0.05 to 0.5

SMILES	IC50 [µM]
NC(CNC(=O)Nc1ccccc1F)c1ccc(C(=O)Nc2ccncc2)cc1 (stereo unspecified)	0.05 to 0.5
CCCC(=O)NCC(N)c1ccc(C(=O)Nc2ccncc2)cc1 (stereo unspecified)	0.5 to 5
COc1ccc(CC(=O)NCC(N)c2ccc(C(=O)Nc3ccncc3)cc2)cc1F (stereo unspecified)	0.05 to 0.5
NC(c1ccc(C(=O)Nc2ccncc2)cc1)C1CCCN1C(=O)Cc1cc(F)cc(F)c1 (stereo unspecified)	0.5 to 5
NC(CNC(=O)c1ccc(F)cc1)c1ccc(C(=O)Nc2ccncc2)cc1 (stereo unspecified)	0.5 to 5
NC(CNC(=O)CCC1CCCC1)c1ccc(C(=O)Nc2ccncc2)cc1 (stereo unspecified)	0.05 to 0.5
NC(CC(=O)NCCc1ccc2c(c1)OCO2)c1ccc(C(=O)Nc2ccncc2)cc1 (stereo unspecified)	0.05 to 0.5
NC(CC(=O)NCCc1ccc(Cl)cc1Cl)c1ccc(C(=O)Nc2ccncc2)cc1 (stereo unspecified)	0.05 to 0.5
NC(CNC(=O)C1(c2ccc(F)cc2Cl)CC1)c1ccc(C(=O)Nc2ccncc2)cc1 (stereo unspecified)	0.05 to 0.5
NC(CNC(=O)Cc1cccs1)c1ccc(C(=O)Nc2ccncc2)cc1 (stereo unspecified)	0.05 to 0.5
COc1ccc(OC)c(CNC(=O)CC(N)c2ccc(C(=O)Nc3ccncc3)cc2)c1 (stereo unspecified)	0.05 to 0.5
NC(c1ccc(C(=O)Nc2ccncc2)cc1)C1CCCN1C(=O)C1(c2ccc(Cl)cc2)CC1 (stereo unspecified)	0.5 to 5
NC(CC(=O)NCCc1ccc(Oc2ccccc2)cc1)c1ccc(C(=O)Nc2ccncc2)cc1 (stereo unspecified)	0.05 to 0.5
NC(CNC(=O)c1ccc([N+](=O)[O-])o1)c1ccc(C(=O)Nc2ccncc2)cc1 (stereo unspecified)	0.5 to 5
CC[C@H](NC(=O)CC(N)c1ccc(C(=O)Nc2ccncc2)cc1)c1ccc(C)cc1 (stereo partly specified)	0.05 to 0.5
NC(CNC(=O)c1ccccn1)c1ccc(C(=O)Nc2ccncc2)cc1 (stereo unspecified)	0.5 to 5
NC(CC(=O)NCc1cccc(Br)c1)c1ccc(C(=O)Nc2ccncc2)cc1 (stereo unspecified)	0.05 to 0.5
Cc1nc(-c2ccccc2)sc1C(=O)NCC(N)c1ccc(C(=O)Nc2ccncc2)cc1 (stereo unspecified)	0.5 to 5
NC(c1ccc(C(=O)Nc2ccncc2)cc1)C1CCCN1C(=O)C1(c2cccc(F)c2)CCCC1 (stereo unspecified)	0.5 to 5
Cc1ccc(CC(=O)N2CCCC2C(N)c2ccc(C(=O)Nc3ccncc3)cc2)cc1 (stereo unspecified)	0.5 to 5
COc1cccc(CNC(=O)CC(N)c2ccc(C(=O)Nc3ccncc3)cc2)c1OC (stereo unspecified)	0.05 to 0.5

Results, then the compound that gave them:

IC50 [µM]	SMILES
0.05 to 0.5	NC(CC(=O)NCc1ccccc1Cl)c1ccc(C(=O)Nc2ccncc2)cc1 (stereo unspecified)
0.05 to 0.5	NC(CC(=O)NCCc1ccc(F)cc1)c1ccc(C(=O)Nc2ccncc2)cc1 (stereo unspecified)
0.5 to 5	CCNC(=S)NCC(N)c1ccc(C(=O)Nc2ccncc2)cc1 (stereo unspecified)
0.05 to 0.5	Cc1cccc(CNC(=O)CC(N)c2ccc(C(=O)Nc3ccncc3)cc2)c1 (stereo unspecified)
0.05 to 0.5	NC(CNC(=S)Nc1ccc(Cl)cc1)c1ccc(C(=O)Nc2ccncc2)cc1 (stereo unspecified)
0.5 to 5	COc1ccc(C2(C(=O)N3CCCC3C(N)c3ccc(C(=O)Nc4ccncc4)cc3)CC2)cc1 (stereo unspecified)
0.05 to 0.5	NC(c1ccc(C(=O)Nc2ccncc2)cc1)C1CCCN1C(=O)Cc1ccccc1 (stereo unspecified)
0.05 to 0.5	Cc1cc(Cl)ccc1NC(=O)NCC(N)c1ccc(C(=O)Nc2ccncc2)cc1 (stereo unspecified)
0.5 to 5	NC(CNC(=O)c1csc(Nc2ccc(F)cc2)n1)c1ccc(C(=O)Nc2ccncc2)cc1 (stereo unspecified)
0.5 to 5	NC(c1ccc(C(=O)Nc2ccncc2)cc1)C1CCCN1C(=O)C1(c2ccc(Cl)cc2F)CC1 (stereo unspecified)
0.05 to 0.5	NC(CC(=O)N(CCc1ccccc1)Cc1ccccc1)c1ccc(C(=O)Nc2ccncc2)cc1 (stereo unspecified)
0.5 to 5	COc1ccc2[nH]c(C(=O)NCC(N)c3ccc(C(=O)Nc4ccncc4)cc3)cc2c1 (stereo unspecified)
0.5 to 5	CC(C)C(C(=O)N(C)CC(N)c1ccc(C(=O)Nc2ccncc2)cc1)c1ccc(Cl)cc1 (stereo unspecified)
0.05 to 0.5	N[C@H](CC(=O)N[C@H]1COc2ccccc21)c1ccc(C(=O)Nc2ccncc2)cc1
0.5 to 5	CN(CC(N)c1ccc(C(=O)Nc2ccncc2)cc1)C(=O)C1(c2ccc(Cl)c(Cl)c2)CCC1 (stereo unspecified)
0.5 to 5	CN(CC(N)c1ccc(C(=O)Nc2ccncc2)cc1)C(=O)C1(c2ccc(F)cc2)CC1 (stereo unspecified)
0.05 to 0.5	NC(CNC(=O)c1ccc2[nH]ccc2c1)c1ccc(C(=O)Nc2ccncc2)cc1 (stereo unspecified)

IC50 [µM]	SMILES
0.5 to 5	CN(CC(N)c1ccc(C(=O)Nc2ccncc2)cc1)C(=O)Cc1ccc(Cl)cc1Cl (stereo unspecified)
0.5 to 5	NC(c1ccc(C(=O)Nc2ccncc2)cc1)C1CCCN1C(=O)Cc1cc(F)ccc1F (stereo unspecified)
0.5 to 5	CN(CC(N)c1ccc(C(=O)Nc2ccncc2)cc1)C(=O)Cc1ccc(F)c(F)c1 (stereo unspecified)
0.5 to 5	NC(CNC(=O)c1cccc2ccccc12)c1ccc(C(=O)Nc2ccncc2)cc1 (stereo unspecified)
0.05 to 0.5	NC(CC(=O)NCCN1CCOCC1)c1ccc(C(=O)Nc2ccncc2)cc1 (stereo unspecified)
0.05 to 0.5	COc1ccccc1CNC(=O)CC(N)c1ccc(C(=O)Nc2ccncc2)cc1 (stereo unspecified)
0.05 to 0.5	NC(c1ccc(C(=O)Nc2ccncc2)cc1)C1CCCN1C(=O)Cc1ccc(Br)cc1 (stereo unspecified)
0.05 to 0.5	NC(CC(=O)NCc1ccco1)c1ccc(C(=O)Nc2ccncc2)cc1 (stereo unspecified)
0.05 to 0.5	NC(CC(=O)NCCc1ccc(C(F)(F)F)cc1)c1ccc(C(=O)Nc2ccncc2)cc1 (stereo unspecified)
0.05 to 0.5	NC(CNC(=S)Nc1ccccc1)c1ccc(C(=O)Nc2ccncc2)cc1 (stereo unspecified)
0.05 to 0.5	NC(CC(=O)NCC1CCCO1)c1ccc(C(=O)Nc2ccncc2)cc1 (stereo unspecified)
0.5 to 5	CS(=O)(=O)c1cccc(C(=O)NCC(N)c2ccc(C(=O)Nc3ccncc3)cc2)c1 (stereo unspecified)
0.05 to 0.5	NC(CNC(=O)C1CCCCc2ccc(F)cc21)c1ccc(C(=O)Nc2ccncc2)cc1 (stereo unspecified)
0.5 to 5	NC(CNC(=O)c1csc(-c2ccccc2)n1)c1ccc(C(=O)Nc2ccncc2)cc1 (stereo unspecified)
0.05 to 0.5	NC(CC(=O)NCc1cccc(Cl)c1)c1ccc(C(=O)Nc2ccncc2)cc1 (stereo unspecified)
0.05 to 0.5	NC(CNC(=O)c1ccc2c(c1)OCO2)c1ccc(C(=O)Nc2ccncc2)cc1 (stereo unspecified)
5 to 50	CN(CC(N)c1ccc(C(=O)Nc2ccncc2)cc1)C(=O)C(c1ccccc1)C1CCCC1 (stereo unspecified)
